{"source": "patent US5229370A", "about": "“Water soluble branched beta cyclodextrin steroid complex” (priority 1992, dated 1993)", "origin": "cited, not measured here", "data": [{"settings": "under ambient conditions; reported", "units": {"solubility of steroid in water": "mg/mL"}, "values": [{"smiles": "C[C@]12CC[C@H]3[C@@H](CCC4=CC(=O)CC[C@@]43C)[C@@H]1CC[C@@H]2O", "note": "[testosterone]", "solubility of steroid in water": 0.040}, {"smiles": "CC(=O)[C@H]1CC[C@H]2[C@@H]3CCC4=CC(=O)CC[C@]4(C)[C@H]3CC[C@]12C", "note": "[progesterone]", "solubility of steroid in water": 0.016}, {"smiles": "CC(C)CCC[C@@H](C)[C@H]1CC[C@H]2[C@@H]3CC=C4C[C@@H](O)CC[C@]4(C)[C@H]3CC[C@]12C", "note": "[cholesterol]", "solubility of steroid in water": 0.002}]}]}
